Test results taken from patent publication US20110077279A1, “ANGIOTENSIN II RECEPTOR ANTAGONISTS” (priority 2008, published 2011).
pEC50: −log10 of the molar value.

Tests used:
[1] = tested on: isolated rabbit thoracic aorta preparations; assay: Assay on vascular tone: vasorelaxation of noradrenaline-precontracted aortic rings; format: cell-based; settings: Oryctolagus cuniculus; rabbit aortic rings precontracted with noradrenaline 1 μM, functional endothelium; read-out: EC50 in vessel relaxation assay
Procedure: The ability of the compounds of the invention to induce vasorelaxation in comparison to native angiotensin II receptor blockers (ARBs), was tested in vitro in isolated rabbit thoracic aorta preparations (Wanstall J. C. et al., Br. J. Pharmacol., 134:463-472, 2001). Male New Zealand rabbits were anaesthetized with thiopental-Na (50 mg/kg, iv), sacrificed by exsanguinations and then the thorax was opened and the aorta dissected. Aortic ring preparations (4 mm in length) were set up in physiological salt solution (PSS) at 37° C. in small organ chambers (5 ml). The composition of PSS was (mM): NaCl 130, NaHCO3 14.9, KH2PO4 1.2, MgSO4 1.2, HEPES 10, […] (95% O2/5% CO2; pH 7.4). Each ring was mounted under 2 g passive tension. Isometric tension was recorded with a Grass transducer (Grass FT03) attached to a BIOPAC MP150 System. Preparations were allowed to equilibrate for 1 h, and then contracted submaximally with noradrenaline (NA, 1 μM) and, when the contraction was stable, acetylcholine (ACh, 10 μM) was added. A relaxant response to ACh indicated the presence of a functional endothelium. […] When a stable precontraction was reached, a cumulative concentration-response curve to either of the vasorelaxant agents was obtained in the presence of a functional endothelium. Each arterial ring was exposed to only one combination of inhibitor and vasorelaxant. Moreover, the effect of the soluble guanylyl cyclase inhibitor ODQ (1-H-(1,2,4)-oxadiazol(4,3-a)quinoxalin-1-one) on vasorelaxation elicited by the compounds was examined preincubating the aortic rings with ODQ (10 μM) for 20 min.
Responses to relaxing agents are expressed as a percentage of residual contraction and plotted against concentration of test compound. EC50 values (where EC50 is the concentration producing 50% of the maximum relaxation to the test compound) were interpolated from these plots.
During the experimental period, the plateau obtained with NA was stable without significant spontaneous loss of contraction in the aortic rings. […]

[2] = tested on: conscious spontaneously hypertensive rats (SHRs); assay: Assay for antihypertensive activity (in vivo), telemetry; design: species or system rat
Procedure: The ability of the compounds of the invention to decrease blood pressure was evaluated in conscious spontaneously hypertensive rats (SHRs). SHRs (250-300 g) received a single oral dose of tested compounds. Systolic blood pressure (SBP) and heart rate were monitored by telemetry for 24 hrs after dosing. SBP was evaluated before (baseline) and at different time points (i.e. 2-6, 12, 21-24 hrs) following treatment by oral administration of the compounds. The data were processed both as the absolute value or as a delta between the absolute value and its own baseline.
The Dataquest IV telemetry system (Data Sciences International) was used for measurement of systolic pressure, diastolic pressure, mean arterial pressure, heart rate, and motor activity. The monitoring system consists of a transmitter (radio frequency transducer model TA11PA), receiver panel, consolidation matrix, and personal computer with accompanying software. Before the device was implanted, calibrations were verified to be accurate within ±3 mmHg. Rats were anesthetized with ketamine/xylazine/acepromazine, and the flexible catheter of the transmitter was surgically secured in the abdominal aorta just below the renal arteries. The transmitter was sutured subcutaneously. Rats were housed in individual cages after the operation. Each cage was placed over the receiver panel that was connected to the personal computer for data acquisition. The rats were unrestrained and free to move within their cages. Hemodynamic data were sampled every 2 minutes for 10 seconds.
Compared to Compound A (reference compound), the compounds of the invention provided BP lowering with extended peak effect and duration of action (see Data Table 2).

[3] = 2-6 h after single oral dose, 10 mpk
[4] = 21-24 h after single oral dose, 10 mpk
[5] = 12 h after single oral dose, 10 mpk

Row | Structure (SMILES) | pEC50 [1] | Δ SBP in SHR ([2]; 2-6 h after single oral dose, 3 mpk) [mmHg] | Δ SBP in SHR ([2]; 21-24 h after single oral dose, 3 mpk) [mmHg] | Δ SBP in SHR ([2]; 12 h after single oral dose, 3 mpk) [mmHg] | Δ SBP in SHR [2, 3] [mmHg] | Δ SBP in SHR [2, 4] [mmHg] | Δ SBP in SHR [2, 5] [mmHg]
1 | CCOc1nc2cccc(C(=O)OC(C)(C)OC(=O)O[C@@H]3CO[C@H]4[C@@H]3OC[C@H]4OC(=O)CCCC(CO[N+](=O)[O-])O[N+](=O)[O-])c2n1Cc1ccc(-c2ccccc2-c2nnn[nH]2)cc1 (stereo partly drawn) [Example 2, 2-(((3R,3aR,6R,6aR)-6-(5,6-bis(nitrooxy)hexanoyloxy)hexahydrofuro[3,2-b]furan-3-yloxy)carbonyloxy)propan-2-yl 1-((2′-(1H-tetrazol-5-yl)biphenyl-4-yl)methyl)-2-ethoxy-1H-benzo[d]imidazole-7-carboxylate] | 6.57 | −37 | −33 | −34 |  |  | 
2 | CCOc1nc2cccc(C(=O)OC(C)(C)OC(=O)O[C@@H]3CO[C@H]4[C@@H]3OC[C@H]4OC(=O)OCCC(C)(C)CC(CO[N+](=O)[O-])O[N+](=O)[O-])c2n1Cc1ccc(-c2ccccc2-c2nn[nH]n2)cc1 (stereo partly drawn) [Example 3, 2-(((3R,3aR,6R,6aR)-6-((3,3-dimethyl-5,6-bis(nitrooxy)hexyloxy)carbonyloxy)hexahydrofuro[3,2-b]furan-3-yloxy)carbonyloxy)propan-2-yl 1-((2′-(2H-tetrazol-5-yl)biphenyl-4-yl)methyl)-2-ethoxy-1H-benzo[d]imidazole-7-carboxylate] | 6.74 |  |  |  |  |  | 
3 | CCCCc1nc(Cl)c(C(=O)OC(C)OC(=O)O[C@@H]2CO[C@H]3[C@@H]2OC[C@H]3OC(=O)CCCC(CO[N+](=O)[O-])O[N+](=O)[O-])n1Cc1ccc(-c2ccccc2-c2nnn[nH]2)cc1 (stereo partly drawn) [Example 1, 1-(((3R,3aR,6R,6aR)-6-(5,6-bis(nitrooxy)hexanoyloxy)hexahydrofuro[3,2-b]furan-3-yloxy)carbonyloxy)ethyl 1-((2′-(1H-tetrazol-5-yl)biphenyl-4-yl)methyl)-2-butyl-4-chloro-1H-imidazole-5-carboxylate] | 5.21 |  |  |  | −19 | −11 | −14
4 | CCCCc1nc(Cl)c(C(=O)OCCOCCO[N+](=O)[O-])n1Cc1ccc(-c2ccccc2-c2nn[nH]n2)cc1 [A, reference compound] |  |  |  |  | −15 | −8 | −12
